The values below come from the supplement of paper PMC11003180.

Holding throughout (test): drug sensitivity score (DSS) from 5-dose viability curve (DSS (area-based score, 0 = no response)); higher = more sensitive (stronger viability inhibition); extreme values may be limits of the assay
For assay [1], the system named is MDCK wild-type - doxycycline. Conditions: doxycycline: none; 72 h. In short, it runs like this: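 For 72 h at 37 °C, parental MDCK cells (no doxycycline, 2000 cells/well) were incubated on 384-well plates pre-spotted with 528 oncology drugs at five doses from 1 to 10,000 nM. CellTiter-Glo luminescence served as the viability readout, scaled per plate between vehicle and positive controls. The Breeze pipeline then fitted dose-response curves to yield drug sensitivity scores.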

Assay [2] deals with MDCK p60AmotL2-inducible + doxycycline (p60AmotL2 expressing). As to conditions: doxycycline: 10 ng/mL; 72 h. A digest of the protocol: (§1)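 After 72 h at 37 °C on 384-well plates pre-spotted with 528 oncology drugs at five doses (1-10,000 nM), parental and doxycycline-inducible MDCK cells were assessed; both lines had been given 10 ng/mL doxycycline in the medium before seeding at 2000 cells/well. Viability was taken from CellTiter-Glo luminescence scaled per plate to vehicle and positive controls, and drug sensitivity scores were derived from dose-response fits in the Breeze pipeline.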

The test system of assay [3] is MDCK wild-type + doxycycline. As to conditions: doxycycline: 10 ng/mL; 72 h. A digest of the protocol:
as §1

Regarding `Cn1nnc2c(C(N)=O)ncn2c1=O` [Temozolomide], the drug sensitivity score in assay [1], in assay [2] and in assay [3] was 0 throughout.
With `CO[C@H]1C[C@@H]2CC[C@@H](C)[C@@](O)(O2)C(=O)C(=O)N2CCCC[C@H]2C(=O)O[C@H]([C@H](C)C[C@@H]2CC[C@@H](OC(=O)C(C)(CO)CO)[C@H](OC)C2)CC(=O)[C@H](C)/C=C(\C)[C@@H](O)[C@@H](OC)C(=O)[C@H](C)C[C@H](C)/C=C/C=C/C=C/1C` [Temsirolimus], the drug sensitivity score was determined as 0 in assay [1], 10 in assay [2] and 2.3 in assay [3].
The like results for `COc1cc([C@@H]2c3cc4c(cc3[C@@H](O[C@@H]3O[C@@H]5CO[C@@H](c6cccs6)O[C@H]5[C@H](O)[C@H]3O)[C@H]3COC(=O)[C@H]23)OCO4)cc(OC)c1O` [Teniposide] were, in that order, 0.9, 2.7 and 1.5.
With `CN1CCC(COc2cnc(-c3cccc(Cn4nc(-c5cccc(C#N)c5)ccc4=O)c3)nc2)CC1` [Tepotinib], the drug sensitivity score in assay [1] is 0; in assay [2], 0.1; in assay [3], 0.
On to `COc1cc2c(Nc3ccc(Cl)c(Cl)c3F)ncnc2cc1OC[C@@H]1C[C@@H]2CN(C)C[C@@H]2C1` [Tesevatinib], for which the drug sensitivity score in assay [1] worked out at 5.8; in assay [2] it was 18.9; in assay [3], 8.5.
Take `O=C1CCC(N2C(=O)c3ccccc3C2=O)C(=O)N1` (stereo not given) [Thalidomide]: the drug sensitivity score in assay [1], in assay [2] and in assay [3] was 0 throughout.
Turning to `Nc1nc2[nH]cnc2c(=S)[nH]1` [Thioguanine], the drug sensitivity score was 1.1 in assay [1], 1.5 in assay [2] and 3.8 in assay [3].
The corresponding values for `O=c1sn(-c2cccc3ccccc23)c(=O)n1Cc1ccccc1` [Tideglusib] are 0, 0 and 0.
For the molecule `Cn1cncc1[C@@](N)(c1ccc(Cl)cc1)c1ccc2c(c1)c(-c1cccc(Cl)c1)cc(=O)n2C` [Tipifarnib], the values for the drug sensitivity score in assay [1], in assay [2] and in assay [3] were 2.5, 9.6 and 4.4, respectively.
On to `CC#CC(=O)N1CC[C@@H](n2c(=O)n(-c3ccc(Oc4ccccc4)cc3)c3c(N)ncnc32)C1` [Tirabrutinib], for which the drug sensitivity score in assay [1] is 0; in assay [2] it was 4; in assay [3], 0.8.
Regarding `O=C1NC(=O)[C@@H](c2cn3c4c(cccc24)CCC3)[C@@H]1c1c[nH]c2ccccc12` [Tivantinib], the figures for the drug sensitivity score in assay [1], in assay [2] and in assay [3] were 1.6, 2.7 and 3.4, respectively.
The like results for `COc1cc2nccc(Oc3ccc(NC(=O)Nc4cc(C)on4)c(Cl)c3)c2cc1OC` [Tivozanib] were, in that order, 2.5, 4.4 and 8.2.
In the case of `C[C@@H]1CCN(C(=O)CC#N)C[C@@H]1N(C)c1ncnc2[nH]ccc12` [Tofacitinib], the drug sensitivity score in assay [1], in assay [2] and in assay [3] was 0 in each case.
For the molecule `CC[C@@]1(O)C(=O)OCc2c1cc1n(c2=O)Cc2cc3c(CN(C)C)c(O)ccc3nc2-1` [Topotecan], the drug sensitivity score was 8.1 in assay [1], 11.5 in assay [2] and 10.1 in assay [3].
The corresponding values for `CN(C)CCOc1ccc(/C(=C(/CCCl)c2ccccc2)c2ccccc2)cc1` [Toremifene] are 0, 4.6 and 3.6.
The corresponding values for `CC(C)C[C@@H](C(=O)N[C@H](C(=O)OC1CCCC1)c1ccccc1)[C@H](O)C(=O)NO` [Tosedostat] are 1.4, 2.5 and 1.7.
For the molecule `Cc1cc(Nc2cc(N3CCN(C)CC3)nc(Sc3ccc(NC(=O)C4CC4)cc3)n2)n[nH]1` [Tozasertib], the drug sensitivity score in assay [1] was determined as 1.4; in assay [2] it was 8.6; in assay [3] it was 4.2.
In the case of `CC(=O)Nc1cccc(-n2c(=O)n(C3CC3)c(=O)c3c(Nc4ccc(I)cc4F)n(C)c(=O)c(C)c32)c1` [Trametinib], the drug sensitivity score amounted to 6.6 in assay [1], 15.8 in assay [2] and 7.4 in assay [3].
The corresponding values for `CC1=C(/C=C/C(C)=C/C=C/C(C)=C/C(=O)O)C(C)(C)CCC1` [Tretinoin] are 0.7, 0 and 0.
The like results for `NC(=S)N/N=C/c1ncccc1N` [Triapine] were, in that order, 4.7, 3.9 and 3.6.
Consider `O=c1[nH]c(=O)n([C@H]2C[C@H](O)[C@@H](CO)O2)cc1C(F)(F)F` [Trifluridine], for which the drug sensitivity score in assay [1] worked out at 1.4; in assay [2], 2.6; in assay [3], 1.4.
In the case of `O=C(CCCCCCC(=O)Nc1ccc([C@H]2O[C@@H](CSc3nc(-c4ccccc4)c(-c4ccccc4)o3)C[C@@H](c3ccc(CO)cc3)O2)cc1)NO` [Tubacin], the drug sensitivity score in assay [1], in assay [2] and in assay [3] was 0 in each case.
With `CN1CCc2c(c3ccccc3n2Cc2ccc(C(=O)NO)cc2)C1` [Tubastatin A], the figures for the drug sensitivity score in assay [1], in assay [2] and in assay [3] were 0, 0.7 and 0, respectively.
Consider `Cc1cc(Nc2ncnc3ccc(NC4=NC(C)(C)CO4)cc23)ccc1Oc1ccn2ncnc2c1` [Tucatinib], for which the drug sensitivity score in assay [1], in assay [2] and in assay [3] was 0 each time.
As to `Nc1cc(F)ccc1NC(=O)c1ccc(CNC(=O)/C=C/c2cccnc2)cc1` [Tucidinostat], the drug sensitivity score in assay [1] amounted to 0.8; in assay [2], 2.6; in assay [3], 2.4.
With `CN[C@@H]1C[C@H]2O[C@@](C)([C@@H]1OC)n1c3ccccc3c3c4c(c5c6ccccc6n2c5c31)C(=O)N[C@H]4O` [UCN-01], the drug sensitivity score is 18.1 in assay [1], 14.5 in assay [2] and 18.5 in assay [3].
`COC(=O)c1ccc2c(c1)[nH]c1ncnc(NCCCN3CCCCC3)c12` [UM729]: the drug sensitivity score worked out at 0 in assay [1], 3 in assay [2] and 0.9 in assay [3].
The corresponding values for `COc1cc2c(NC3CCN(C(C)C)CC3)nc(C3CCCCC3)nc2cc1OCCCN1CCCC1` [UNC0638] are 5.2, 5 and 5.3.
The like results for `COc1cc2c(NC3CCN(C(C)C)CC3)nc(N3CCC(F)(F)CC3)nc2cc1OCCCN1CCCC1` [UNC0642] were, in that order, 0, 0.2 and 0.
Turning to `O=C(c1ccc(C(=O)N2CCC(N3CCCC3)CC2)c(Nc2ccccc2)c1)N1CCC(N2CCCC2)CC1` [UNC1215], the drug sensitivity score in assay [1], in assay [2] and in assay [3] was 0 each time.
